# Results published in US7265139B2, “RXR activating molecules” (Incyte San Diego Inc., priority 2001, dated 2007).
# Tests used:
# RXR receptor = target: T1, RXR receptor (Homo sapiens, UniProt P19793); assay: RXR activation (transient transfection reporter assay); format: cell-based; settings: 1 μM compared to 9-cis-RA at equal concentration
# T1 construct: expressed in transfected cells
# T1 sequence (P19793 1-462): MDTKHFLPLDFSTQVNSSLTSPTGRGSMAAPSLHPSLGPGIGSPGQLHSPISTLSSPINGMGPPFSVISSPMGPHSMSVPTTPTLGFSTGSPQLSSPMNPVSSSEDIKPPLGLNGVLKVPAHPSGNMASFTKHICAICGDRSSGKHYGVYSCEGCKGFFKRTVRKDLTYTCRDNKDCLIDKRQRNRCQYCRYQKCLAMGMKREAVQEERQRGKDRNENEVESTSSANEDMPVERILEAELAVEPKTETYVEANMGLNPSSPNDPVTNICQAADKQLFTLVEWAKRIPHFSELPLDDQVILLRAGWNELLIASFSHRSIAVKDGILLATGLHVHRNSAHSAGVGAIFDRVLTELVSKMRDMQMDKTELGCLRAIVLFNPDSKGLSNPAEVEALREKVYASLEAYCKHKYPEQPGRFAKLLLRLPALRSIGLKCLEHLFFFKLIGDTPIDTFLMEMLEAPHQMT
# Excerpt: RXR agonists activate the RXR receptor when interacting with RXR by binding to its binding pocket. This activation can be independent of whether the agonist, while interacting with portions of the ligand binding pocket, also interacts with side pocket 1. Activation, also often referred to as transcriptional activation, of RXR by agonists can be measured by a number of commonly used assays where the effect of the agonist ligand interacting with the RXR ligand binding pocket is to stimulate or induce transcription of a gene or genes in a cell. In one particular embodiment, transient transfection experiments (as described essentially by Zhang, et al. (1996) Negative Regulation of Peroxisome Proliferator—Activated Receptor—γ Gene Expression Contributes to the Antiadipogenic effects of Tumor Necrosis Factor—α. Mol. Endo. 10:1457-1456) can be used. In these cases, full length RXR proteins are expressed in living cells. Alternatively, hybrid proteins that contain a portion of another DNA binding domain and the ligand binding portion of the human RXRα receptor can be expressed in living cells instead of the full length RXR protein. Such hybrid proteins can bind to and activate specific reporter genes introduced into the same living cell and activation of such reporter genes is measured. The assays described here are very commonly used today by people skilled in the art of molecular biology experimenting. Transient transection assays are often used instead of ligand binding assays and can serve to measure or estimate an affinity of an RXR agonist ligand for RXR protein. The effective dose fifty (ED50, also called EC50) is the concentration of the ligand necessary to lead to one half maximal activation of the reporter gene in a living cell. Compounds that show 60% of the activity of the agonist 9-cis retenoic acid at 10^−6 M can be considered an RXR activator/agonist. Compounds which show 70% 80% 90% of the activity of the agonist 9-cis retinoic acid are also provided.
# To confirm that the computer modeling/design of a compound does result in an RXR activator or RXR agonist, i.e. a compound that leads to RXR activation or transcriptional activation, commonly used assays can be applied, where the effect of the agonist or activator, interacting with the RXR ligand binding pocket is to stimulate or induce transcription of a gene or genes in a cell. In one particular embodiment, transient transfection experiments (as described essentially by Zhang, et al. (1996) Negative Regulation of Peroxisome Proliferator—Activated Receptor—γ Gene Expression Contributes to the Antiadipogenic effects of Tumor Necrosis Factor—α. Mol. Endo. 10:1457-1456) can be used. In these cases, full length RXR proteins are expressed in living cells. Alternatively, hybrid proteins that contain a portion of another DNA, binding domain and the ligand binding portion of the human RXRα receptor can be expressed in living cells instead of the fall length RXR protein. Such hybrid proteins can bind to and activate specific reporter genes introduced into the same living cell and activation of such reporter genes is measured (Brand, A. H. & Perrimon, 1993, Development, 118:401-415; Moya-Camarena, S. Y. et.al., 1999, J. Lipid Res., 40:1426:1433; Yi, Y. W. et al., 2000, Biochem. Biophys. Res. Commun., 272:193-198, each are herein incorporated by reference at least for material related to reporter assays). These assays not only measure binding of the ligand to its target, which could also be measured by an in vitro binding assay, but also measure the agonistic or activator activity of the compound. In such an assay, new compounds are compared to a standard activator like compound I or the natural agonist of RXR: 9-cis retinoic acid (see Example 7). For instance, all compounds that show at a given concentration at least 60% of the activity of 9-cis retinoic acid can be considered useful activators.
# [1] = test system: Mouse 3T3-L1 preadipocytes; assay: 3T3-L1 adipocyte differentiation assay; format: cell-based; settings: 0.1 μM compared to Compound 1 at equal concentration; pre-adipocytes to adipocytes
# Method: Mouse 3T3-L1 cells were grown in 96-well tissue culture plates containing growing medium (DME containing 10% calf serum (CS) plus glutamine-pen-strep) at a density of 3,000 cells/well. Two days after reaching confluence, cells are treated with the different compounds in DM (Day 0). Compound 1 is included in all the experiments, and its ability to differentiate 3T3-L1 cells at 0.1 μM is taken as reference for 100% differentiation. After 7 days the lipid content of the cells was determined.
# Prior to testing compounds in vivo, they can be run through the in vitro adipocyte differentiation assay based on the protocol of Zhang, et al. (1996) Negative Regulation of Peroxisome Proliferator—Activated Receptor—γGene Expression Contributes to the Antiadipogenic effects of Tumor Necrosis Factor—α. Mol. Endo. 10:1457-1456, incorporated herein by reference. In short, mouse 3T3-L1 preadipocytes are grown in culture medium containing 10% calf serum supplemented with antibiotics. Two days after reaching confluence, cells are treated with the selected compound at different concentrations dissolved in medium containing 10% fetal calf serum supplemented with antibiotics and kept at 10% CO2. The test compounds are replaced every 2-3 days. Differentiation is assessed after 7 days of treatment by the lipid content in the cells, using the Triglyceride (INFINITY) reagent (Sigma Chemical, St. Louis, Mo.).
# The ability of a compound to induce preadipocytes to differentiate into adipocytes is an indicator of its antidiabetic activity. This allows for screening many compounds in a simple in vitro assay, thus avoiding the task of testing all compounds in vivo. The adipocyte differentiation assay is based on the protocol of Zhang, et al. (1996) Negative Regulation of Peroxisome Proliferator-Activated Receptor-γ Gene Expression Contributes to the Antiadipogenic effects of Tumor Necrosis Factor—α. Mol. Endo. 10:1457-1456, incorporated herein by reference at least for material related to adipocyte differentiation assays. Mouse 3T3-L1 preadipocytes are grown in culture medium containing 10% calf serum supplemented with antibiotics. Two days after reaching confluence, cells are treated with the selected compound at different concentrations dissolved in medium containing 10% fetal calf serum supplemented with antibiotics and kept at 10% CO2. The test compounds are replaced every 2-3 days. Differentiation is assessed after 7 days of treatment by the lipid content in the cells, using the Triglyceride (INFINITY) reagent (Sigma Chemical, St. Louis, Mo.) (see FIG. 15).
# KKA^y mice = assay: Antidiabetic activity in type 2 diabetic KKA^y mice; format: in vivo, mouse; settings: for Efficacious in KKAy Mice: efficacious = lowers glucose without increasing triglycerides
# Method: Prior to commencing treatment, all of the animals are bled from the tail vein and serum levels of glucose and triglyceride are measured in duplicate. The animals are then sorted into different treatment groups with equal average triglyceride levels. The animals are treated with a single daily oral dose of the test compound suspended in sesame oil (dose volume of 3 ml/kg).
# In short, adult diabetic KKA^y mice are housed in a fixed 12—12-hr artificial light-dark cycle, and maintained on a standard rodent diet. Prior to commencing treatment, all of the animals are bled from the tail vein and serum levels of glucose and triglyceride are measured in duplicate. The animals are then sorted into different treatment groups with equal average triglyceride levels. The animals are treated with a single daily oral dose ranging from 3-30 mg/kg of the test compound suspended in sesame oil (dose volume of 3-5 ml/kg). Following one week of treatment the animals are bled from the tail vein and Serum glucose and triglycerides are measured in duplicate.
# In this example, compound 1, which belongs to the novel subclass of RXR ligands is compared to a typical RXR ligand like compound 2 in the treatment of KKA^y mice.
# For this study, adult diabetic KKA^y mice were housed in a fixed 12—12-hr artificial light-dark cycle, and maintained on a standard rodent diet. Prior to commencing treatment, all of the animals are bled from the tail vein and serum levels of glucose and triglyceride are measured in duplicate. The animals are then sorted into different treatment groups with equal average triglyceride levels. The animals are treated with a single daily oral dose of the test compound suspended in sesame oil (dose volume of 3 ml/kg).
# BALB/c mice = assay: Effect on serum triglyceride levels in wild type BALB/c mice; format: in vivo, mouse; settings: FIG. 13, p≦0.01
# Method: The animals were treated with a single daily oral dose of the test compound suspended in sesame oil (dose volume of 5 ml/kg). […], Animas treated with 10 and 30 mg/kg of Compound 1, which are doses that are 30 and 100 times the efficacious does in diabetic db/db mice, respectively, caused no increase in serum triglyceride levels compared to vehicle treated control animals.
# Test compounds are tested in wild type mice at 10-100 times the efficacious dose in diabetic mice. Typically, adult male BALB/c mice are housed in a fixed 12—12-hr artificial light-dark cycle, and maintained on a standard rodent diet. The animals are treated with a single daily oral dose of the test compound suspended in sesame oil (dose volume of 5 ml/kg) as also described in the examples. Approximately two weeks later the animals are bled from the tail vein, then necropsied following sacrifice by carbon dioxide asphyxiation. Several serum biochemical parameters are measured. Of special significance is the effect the selected compounds have on serum triglyceride levels compared to vehicle treated control animals.
# For these studies, adult male BALB/c mice were housed in a fixed 12—12-hr artificial light-dark cycle, and maintained on a standard rodent diet. The animals were treated with a single daily oral dose of the test compound suspended in sesame oil (dose volume of 5 ml/kg).
# db/db mice = settings: at the concentrations used in the KKA^y study; cited from earlier work
# [2] = following two weeks of treatment
SMILES,RXR Activation (RXR receptor) [%],Differentiation Activity [1] [%],Efficacious in KKAy Mice (KKA^y mice),further results
"CCN1C(=O)CC(C)(C)c2cc(C)c(-c3cc(/C=C4\SC(=O)NC4=O)ccc3OC(F)(F)F)cc21 [Compound 8, 5-[3-(1-Ethyl-4,4,6-trimethyl-2-oxo-1,2,3,4-tetrahydro-quinolin-7-yl)-4-trifluoromethoxy-benzylidene]-thiazolidine-2,4-dione]",90,95,Yes,
CC(C)Cc1cc(-c2cc(C=C3SC(=O)NC3=O)ccc2OC(F)(F)F)c2c(c1)C(C)(C)CO2 [Compound 9],125,30,Yes,
Cc1cc2c(cc1-c1cc(C=C3SC(=O)NC3=O)ccc1O)C(C)(C)CCC2(C)C [Compound 4],>100,>100,No,
CON=C1CCC(C)(C)c2cc(C)c(-c3cc(C=C4SC(=O)NC4=O)ccc3OC(F)(F)F)cc21 [Compound 7],100,80,Yes,glucose lowering activity (KKA^y mice; FIG. 16): glucose lowering activity; triglyceride lowering activity (KKA^y mice; FIG. 17): triglyceride lowering activity
"CO/N=C1\CCC(C)(C)c2cc(C)c(-c3cc(/C=C4\SC(=O)NC4=O)ccc3OC(F)(F)F)cc21 [Example 8, 3-[(1-Oxo-4,4,6-trimethyl-1,2,3,4-tetrahydronaphthalene-7-yl)-O-methyloxime]-4-trifluoromethoxy-benzylidene-2,4-thiazolidinedione]",,,,melting point: 224 °C
Cc1cc2c(cc1-c1cc(C=C3SC(=O)NC3=O)ccc1N(C)C)C(C)(C)CCC2(C)C [Compound 3],120,100,Yes,
COc1ccc(C=C2SC(=O)NC2=O)cc1-c1cc2c(cc1C)C(C)(C)CCC2(C)C [Compound 6],>100,>100,No,
CO/N=C1\CCC(C)(C)c2cc(C)c(-c3cc(/C=C4\SC(=O)NC4=O)ccc3Cl)cc21,,,,melting point: 252 to 254 °C
"C=C(c1ccc(C(=O)O)cc1)c1cc2c(cc1C)C(C)(C)CCC2(C)C [Compound 2, reference compound]",,>100,No,"serum glucose levels compared to vehicle treated controls (KKA^y mice; 5 and 15 mg/kg, single daily oral dose in sesame oil, FIG. 10): no difference; serum triglyceride levels compared to vehicle treated controls (KKA^y mice; 5 and 15 mg/kg, single daily oral dose, FIG. 11, statistically significant at 5 mg/kg): increase; glucose levels compared to vehicle treated controls (KKA^y mice; [2]): failed to decrease; triglyceride levels compared to vehicle treated controls (KKA^y mice; [2]): significantly increased; serum triglyceride levels compared to vehicle treated control animals (BALB/c mice; 50 and 100 mg/kg, daily oral, statistically significant at 100 mg/kg): increase; serum triglyceride levels compared to vehicle treated controls (BALB/c mice; similar excess over its effective glucose lowering dose in db/db mice): statistically significant, dose dependent increase; glucose levels in type 2 diabetic db/db mice (db/db mice): lower; triglyceride levels in type 2 diabetic db/db mice (db/db mice): lower"
CO/N=C1\CCC(C)(C)c2cc(C)c(-c3cc(/C=C4\SC(=O)NC4=O)ccc3N(C)C)cc21,,,,melting point: 254 to 256 °C
Cc1cc2c(cc1C1(c3ccc(C(=O)O)cn3)CC1)C(C)(C)CCC2(C)C [Compound 5],,>100,No,
